{"source": "patent US6458832B1", "about": "“Carboplatin analogs for cancer treatment” (Unitech Pharmaceuticals, Inc., priority 1999, dated 2002)", "system": "human squamous carcinoma clone cancer cell line (SCC-1)", "assay": "In-vitro effect on SCC-1 cell growth (cell viability by Coulter Counter)", "format": "cell-based", "details": "for Cell Count/mL: SCC-1 cells, two days after treatment at 37° C., untreated (0 μM) 5.70 × 10^5", "protocol": "The in-vitro effects of sample #01 1700 on human squamous carcinoma clone cancer cell line (SCC-1).\nAll cell culture plasticware was purchased from Fisher. Media and antibiotics were purchased from Gibco and Sigma.\nCell viability using a Coulter Counter is used to quantify toxicity. SCC-^1 cells are grown in MEM media containing 10% Fetal Bovine Serum, 100 units/ml penicillin, 100 1μ/ml streptomycin, and 2.5 μg/ml fungizone at 37° C. in a 5% CO2 incubator. A 6 well dish is inoculated to 2.0×10^5 cells/well in a total volume of media of 2 ml. Incubation occurs overnight and the cells are ready for treatment the next day.\nStock solution of sample #01 1700 is sterile filtered with a 0.22 μm low protein binding syringe filter. Dilutions are made in fresh MEM-10% FBS.\nTwo days after treatment at 37° C., cells are harvested and quantified using a Coulter Counter. To harvest, all media is removed and 1 ml of 1× trypsin solution is added per well. Tryspin is in the well for approximately 5 minutes at 37° C. After 5 minutes, 1 ml of fresh MEM-10% FBS is added per well. Upon vigorous mixing to ensure breakup of aggregate cells, dilutions are made in Isoton®II ready for cell counts. Each well is counted twice. Thus, duplicate wells plus duplicate counts yield 4 cell counts per parameter above.", "data": [{"smiles": "CC(N)C(=O)O.CC(N)C(=O)O.[Cl][Pt][Cl]", "note": "(stereo not drawn) [#011700, PtCl2[CH3CH(NH)2COOH]2]", "values": [{"measurement": "Cell Count/mL", "setting": "20 μM #011700", "result": 600000, "unit": "mL⁻¹"}, {"measurement": "Cell Count/mL", "setting": "30 μM #011700", "result": 580000, "unit": "mL⁻¹"}, {"measurement": "Cell Count/mL", "setting": "40 μM #011700", "result": 520000, "unit": "mL⁻¹"}, {"measurement": "Cell Count/mL", "setting": "50 μM #011700", "result": 440000, "unit": "mL⁻¹"}, {"measurement": "Cell Count/mL", "setting": "60 μM #011700", "result": 380000, "unit": "mL⁻¹"}, {"measurement": "inhibition of the growth of SCC-1 cells in-vitro", "setting": "20-60 μM, two days after treatment", "result": "shows inhibition of the growth"}]}]}
